Source: patent US20250122225A1, “MASP-2 INHIBITORS AND METHODS OF USE” (Omeros Corporation, priority 2023, published 2025)
Counter-ions that a name gives are not always drawn.

Key:
human α-thrombin = molecular target: T1, human α-thrombin (Homo sapiens, UniProt P00734); experiment: Enzymatic assay for thrombin (fluorogenic peptide substrate Boc-VPR-AMC); type: biochemical
T1 construct: enzyme (human α-thrombin (BioPharm® Lab.)) in assay buffer; purchased BioPharm® Lab
In short: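 Human α-thrombin was run with the fluorogenic substrate Boc-VPR-AMC in 20 mM Hepes pH 7.4, 140 mM NaCl, 0.1% Tween 20 at room temperature for 20 min, then stopped with 0.1 M acetic acid. % activity was normalized to DMSO and no-enzyme controls. Under linear conditions IC50 equalled Ki, except for tight-binding inhibitors.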

MASP-2 (CCP1-CCP2-SP) = molecular target: T2, MASP-2 (CCP1-CCP2-SP) (Homo sapiens, UniProt O00187); experiment: Enzymatic assay for MASP-2 inhibitory activity (fluorogenic substrate); type: biochemical
T2 construct: 15 μL of Enzyme MASP-2 (CCP1-CCP2-SP) in Assay Buffer
T2 sequence (O00187 445-686 limits assumed): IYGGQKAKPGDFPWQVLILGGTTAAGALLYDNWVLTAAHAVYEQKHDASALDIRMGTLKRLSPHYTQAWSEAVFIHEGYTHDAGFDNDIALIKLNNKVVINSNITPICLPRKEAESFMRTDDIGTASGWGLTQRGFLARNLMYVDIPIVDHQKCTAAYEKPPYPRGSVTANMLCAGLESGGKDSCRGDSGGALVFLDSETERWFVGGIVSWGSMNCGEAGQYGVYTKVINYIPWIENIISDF
T2 sequence (O00187 287-444 partner limits assumed): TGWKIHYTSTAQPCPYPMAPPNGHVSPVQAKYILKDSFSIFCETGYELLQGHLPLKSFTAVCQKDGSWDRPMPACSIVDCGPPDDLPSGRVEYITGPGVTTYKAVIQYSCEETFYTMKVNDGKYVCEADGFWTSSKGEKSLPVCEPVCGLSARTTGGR
In short: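 MASP-2 (CCP1-CCP2-SP) cleaved a fluorogenic substrate based on the C2 cleavage site in 20 mM HEPES pH 7.4, 140 mM NaCl, 0.1% Tween 20 at room temperature. After 20 min the reaction was stopped with 0.1 M acetic acid and fluorescence read. % activity was normalized to DMSO-only and no-enzyme controls; IC50 taken as Ki.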

Row | Compound | Ki (human α-thrombin) [µM] | Ki (MASP-2 (CCP1-CCP2-SP)) [µM]
1 | Cc1cc(F)cc(CNc2nc(-c3ccnn3C)c3n(c2=O)[C@H](C(=O)NCc2ccc(N)nc2C)CC3)c1 [Compound 175, (S)-N-((6-amino-2-methylpyridin-3-yl)methyl)-3-((3-fluoro-5-methylbenzyl)amino)-1-(1-methyl-1H-pyrazol-5-yl)-4-oxo-4,6,7,8-tetrahydropyrrolo[1,2-a]pyrazine-6-carboxamide trifluoroacetate] | 0.5 to 2.5 | < 0.5
2 | Cc1cc(F)cc(CNc2nc(C3CCCCC3)c3n(c2=O)[C@H](C(=O)NCc2ccc(N)nc2C)CC3)c1 [Compound 176, (S)—N-((6-amino-2-methylpyridin-3-yl)methyl)-1-cyclohexyl-3-((3-fluoro-5-methylbenzyl)amino)-4-oxo-4,6,7,8-tetrahydropyrrolo[1,2-a]pyrazine-6-carboxamide DI-trifluoroacetate] | 10 to 25 | < 0.5
3 | Cc1cc(F)cc(CNc2nc(C3CCCCC3)c3n(c2=O)[C@H](C(=O)NCc2cc4cnccc4[nH]2)CC3)c1 [Compound 177, trifluoroacetate] | > 25 | < 0.5
4 | Cc1cc(F)cc(CNc2ncc3n(c2=O)[C@H](C(=O)NCc2cc(Cl)ccc2-n2cnnn2)CC3)c1 [Compound 179, (S)—N-(5-chloro-2-(1H-tetrazol-1-yl)benzyl)-3-((3-fluoro-5-methylbenzyl)amino)-4-oxo-4,6,7,8-tetrahydropyrrolo[1,2-a]pyrazine-6-carboxamide] | < 0.5 | < 0.5
5 | Cc1cc(F)cc(CNc2ncc3n(c2=O)[C@H](C(=O)NCc2cccc(Cl)c2)CC3)c1 [Compound 180] | 2.5 to 10 | 0.5 to 2.5
6 | Cc1cc(F)cc(CNc2ncc3n(c2=O)[C@H](C(=O)NCc2cnc4[nH]cc(Cl)c4c2)CC3)c1 [Compound 182, (S)—N-((3-chloro-1H-pyrrolo[2,3-b]pyridin-5-yl)methyl)-3-((3-fluoro-5-methylbenzyl)amino)-4-oxo-4,6,7,8-tetrahydropyrrolo[1,2-a]pyrazine-6-carboxamide] | < 0.5 | < 0.5
7 | Cc1cc(F)cc(CNc2ncc3n(c2=O)[C@H](C(=O)NCc2cnc4[nH]ccc4c2)CC3)c1 [Compound 183, (S)-N-((1H-pyrrolo[2,3-b]pyridin-5-yl)methyl)-3-((3-fluoro-5-methylbenzyl)amino)-4-oxo-4,6,7,8-tetrahydropyrrolo[1,2-a]pyrazine-6-carboxamide] | 2.5 to 10 | 0.5 to 2.5
8 | Cc1cc(F)cc(CNc2ncc3n(c2=O)[C@H](C(=O)NCc2ccc(N)c(F)c2)CC3)c1 [Compound 184, (S)-N-(4-amino-3-fluorobenzyl)-3-((3-fluoro-5-methylbenzyl)amino)-4-oxo-4,6,7,8-tetrahydropyrrolo[1,2-a]pyrazine-6-carboxamide] | 0.5 to 2.5 | 0.5 to 2.5

Results, then the compound that gave them:

Row | Ki (human α-thrombin) [µM] | Ki (MASP-2 (CCP1-CCP2-SP)) [µM] | Compound
9 | 2.5 to 10 | 2.5 to 10 | Cc1cc(F)cc(CNc2ncc3n(c2=O)[C@H](C(=O)NC(C#N)c2cccc(Cl)c2)CC3)c1 (stereo partly drawn) [Compound 185, (6S)-N-((3-chlorophenyl)(cyano)methyl)-3-((3-fluoro-5-methylbenzyl)amino)-4-oxo-4,6,7,8-tetrahydropyrrolo[1,2-a]pyrazine-6-carboxamide]
10 | < 0.5 | < 0.5 | Cc1cc(C)cc(CNc2ncc3n(c2=O)[C@H](C(=O)N[C@@H]2CCc4nc(N)ccc42)CC3)c1 [Compound 186, (S)-N-((R)-2-amino-6,7-dihydro-5H-cyclopenta[b]pyridin-5-yl)-3-((3,5-dimethylbenzyl)amino)-4-oxo-4,6,7,8-tetrahydropyrrolo[1,2-a]pyrazine-6-carboxamide]
11 | 2.5 to 10 | < 0.5 | Cc1cccc(CNc2ncc3n(c2=O)[C@H](C(=O)N[C@H](C)c2ccc(N)nc2)CC3)c1 [Compound 187, (S)-N-((R)-1-(6-aminopyridin-3-yl)ethyl)-3-((3-methylbenzyl)amino)-4-oxo-4,6,7,8-tetrahydropyrrolo[1,2-a]pyrazine-6-carboxamide]
